# Article PMC7335011 (The Journal of General Physiology, 2020)
# Target: MthK (Methanothermobacter thermautotrophicus, UniProt O27564)
# Assay type: biochemical
row,IC50,SMILES
1,860 ± 20 µM,NCCCCNCCCN [SPD^3+]
2,77 ± 6 µM,NCCCNCCCCNCCCN [SPM^4+]
